One data set addresses T1, human HCN4 currents (Homo sapiens, UniProt Q9Y3Q4).
T1 construct: CHO cells transiently expressing the HCN4 channel; expressed in transfected cells; host or cells: CHO (ATCC CCL-61), transiently transfected
T1 sequence (Q9Y3Q4 1-1203): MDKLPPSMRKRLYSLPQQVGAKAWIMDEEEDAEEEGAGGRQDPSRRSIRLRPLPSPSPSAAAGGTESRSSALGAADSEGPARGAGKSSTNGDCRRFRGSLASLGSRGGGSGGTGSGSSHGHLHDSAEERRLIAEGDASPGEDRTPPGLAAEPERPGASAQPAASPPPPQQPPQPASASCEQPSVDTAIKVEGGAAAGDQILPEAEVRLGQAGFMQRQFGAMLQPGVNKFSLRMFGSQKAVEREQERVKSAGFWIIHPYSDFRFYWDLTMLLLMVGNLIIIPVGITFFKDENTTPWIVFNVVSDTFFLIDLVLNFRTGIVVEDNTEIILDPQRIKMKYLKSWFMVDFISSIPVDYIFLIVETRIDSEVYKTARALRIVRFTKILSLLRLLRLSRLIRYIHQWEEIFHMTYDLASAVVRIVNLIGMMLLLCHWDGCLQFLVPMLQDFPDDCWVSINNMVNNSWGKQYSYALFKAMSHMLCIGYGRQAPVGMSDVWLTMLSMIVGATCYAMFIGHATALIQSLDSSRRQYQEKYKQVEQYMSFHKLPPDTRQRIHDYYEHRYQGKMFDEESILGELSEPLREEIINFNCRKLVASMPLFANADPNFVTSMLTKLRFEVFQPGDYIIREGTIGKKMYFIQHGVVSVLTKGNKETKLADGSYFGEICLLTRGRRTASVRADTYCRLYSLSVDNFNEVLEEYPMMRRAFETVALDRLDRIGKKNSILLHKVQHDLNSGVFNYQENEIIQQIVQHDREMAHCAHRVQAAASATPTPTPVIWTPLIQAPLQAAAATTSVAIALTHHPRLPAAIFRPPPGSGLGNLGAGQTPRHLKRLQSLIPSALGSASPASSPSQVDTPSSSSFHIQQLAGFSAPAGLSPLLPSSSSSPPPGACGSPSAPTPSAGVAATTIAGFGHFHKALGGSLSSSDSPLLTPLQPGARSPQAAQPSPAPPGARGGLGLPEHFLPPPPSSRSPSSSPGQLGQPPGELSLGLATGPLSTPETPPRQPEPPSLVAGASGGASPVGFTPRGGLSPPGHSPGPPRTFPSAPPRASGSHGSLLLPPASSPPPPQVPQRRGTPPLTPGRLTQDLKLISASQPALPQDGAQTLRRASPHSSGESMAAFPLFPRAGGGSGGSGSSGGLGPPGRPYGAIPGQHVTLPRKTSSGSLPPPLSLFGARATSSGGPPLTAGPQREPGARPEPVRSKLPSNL
The data set can be described thus: Whole-cell patch-clamp, HCN4 steady state currents in transiently transfected CHO cells. The class given is cell-based. The conditions noted are these: CHO cells transiently expressing HCN4, steady state current at -120 mV, n=3; read-out: IC50 (inhibition of HCN4 currents). The source says: The following six compounds in accordance with the invention: • Compound A: [drawing 81] i.e. 4-[5-[3-Chloro-5-(trifluoromethoxy) phenyl]-1-(pyridin-3-yl)-1H-pyrazol-3-yl]-5,6-dihydro-7H-pyrrolo[3,4-d]pyrimidin-7-one, • Compound B: [drawing 82] i.e. 4-[5-[3-Chloro-5-(trifluoromethoxy) phenyl]-1-(pyridin-3-yl)-1H-pyrazol-3-yl]-2,3-dihydro-1H-pyrrolo[3,4-c] pyridin-1-one, • Compound C: [drawing 83] i.e. 4-[5-[3-Chloro-5-(trifluoromethoxy) phenyl]-1-(pyridin-3-yl)-1H-pyrazol-3-yl]-5,6-dihydro-2-methyl-7H-pyrrolo[3, 4-d] pyrimidin-7-one, • Compound D: [drawing 84] i.e. 3-Amino-4-[5-[3-chloro-5-(trifluoromethoxy) phenyl]-1-(pyridin-3-yl)-1H-pyrazol-3-yl-carbonyl]-1,5-dihydro-2H-pyrrol-2-one, • Compound E: [drawing 85] i.e. 1-[[5-[3-Chloro-5-(trifluoromethoxy) phenyl]-1-(pyridin-3-yl)-1H-pyrazol-3-yl]carbonyl]-imidazolidin-4-one, • Compound F: [drawing 86] i.e. 4-[5-[3-Chloro-5-(trifluoromethoxy) phenyl]-1-(3-cyano-4-fluoro-phenyl)-1H-pyrazol-3-yl]-5,6-dihydro-7H-pyrrolo[3,4-d]pyrimidin-7-one, were tested on their effects on human HCN4 currents recorded from transiently transfected CHO cells, in direct comparison to the reference compounds described below: • Ivabradine: [drawing 87] i.e. ((S)-3-{3-[([3,4-Dimethoxy-bicyclo [4.2.0]octa-1,3,5-trien-7-yl]methyl)methylamino]propyl}-1,3,4,5-tetrahydro-7,8-dimethoxy-2H-3-benzazepin-2-on), • Compound X: [drawing 88] i.e. 1-[[1-(3-Chloro-4-fluorophenyl)-5-(3-chloro-5-fluorophenyl)-1 H-pyrazol-3-yl]carbonyl]-imidazolidin-4-one, • Compound Y: [drawing 89] i.e. N-(2-Amino-2-oxoethyl)-1-(3-chloro-4-fluorophenyl)-5-(3-chloro-5-fluorophenyl)-1H-pyrazole-3-carboxamide.
The pyrazole compounds X and Y as depicted above, and having structural similarities to the compounds of general formula (I) of the invention, were also tested to investigate whether the pure If current inhibitory effect of the compounds of the invention also extend to structurally closely related compounds.
Dependent on their solubility in the assay buffer, the compounds were tested first at one concentration of 10 µM (compound A, compound Y, compound X, compound B, compound E, compound F and ivabradine) or 1 µM for (compound C and D). If the current blocking of HCN4 at this concentration was higher than 50% the compounds were tested again at five concentrations of a half-logarithmic dilution series starting with either 10 µM or 1 µM as mentioned above (meaning 0.1 µM, 0.3 µM, 1 µM, 3 µM, and 10 µM or 0.01 µM, 0.03 µM 0.1 µM, 0.3 µM and 1 µM).
Test system: CHO cells transiently expressing the HCN4 channel; NCBI Reference Sequence: NP005468.1 (HCN4 channel); Source CHO: ATCC, CCL-61 LGC Standards GmbH, Wesel, Germany were used.
In 35 mm culture dishes CHO cells were seeded at a density allowing single cells to be recorded on the dish holder of the microscope and continuously perfused (at approximately 1 mL/min) with the bath solution described above. All solutions applied to cells including the pipette solution were maintained at room temperature (19 °C - 30 °C). After formation of a Gigaohm seal between the patch electrodes and individual cells (pipette resistance range: 2.0 MΩ - 7.0 MΩ; seal resistance range: > 1 GΩ) the cell membrane across the pipette tip was ruptured to assure electrical access to the cell interior (whole-cell patch-configuration). As soon as a stable seal was established, steady state currents were measured upon the hyperpolarization to -120 mV (2000 ms) from a holding potential of -40 mV. This voltage protocol (as shown in the scheme below) did run 5 times for control conditions and at least ten times for each test concentration. Pulse intervals were 20 s (0.05 Hz). If current amplitude was judged to be too low for measurement, another cell was recorded.
Once control recordings have been accomplished, cells were continuously perfused with bath solution containing the tested compounds as detailed above, 0.1 % DMSO or 100 µM ZD7288. […]
(In patch-clamp work, channel activity is measured electrically.)

The next data set is described as follows: pKa of compound A. In kind it is physicochemical.

The structures appear in SMILES notation.

As usually defined, the IC50 is the concentration that gives 50% inhibition. For orientation: pKa means the pH at which an ionisable group is half protonated. A higher pKa goes with a group that holds its proton tightly. Consider `O=C1NCc2c1ncnc2-c1cc(-c2cc(Cl)cc(OC(F)(F)F)c2)n(-c2cccnc2)n1` [Compound A, 4-[5-[3-Chloro-5-(trifluoromethoxy)phenyl]-1-(pyridin-3-yl)-1H-pyrazol-3-yl]-5,6-dihydro-7H-pyrrolo[3,4-d]pyrimidin-7-one], for which the IC50 on human HCN4 currents lay in the range of 30 to 580 nM. In addition, in “pKa of compound A”, the pKa stood at 2.3.

The values above are taken from patent EP3263567A1, “CARBOXAMIDE-SUBSTITUTED PYRAZOLES AND TRI(HETERO)ARYL-PYRAZOLES FOR USE IN METHODS OF TREATING AND / OR PREVENTING CARDIOVASCULAR DISEASES AND / OR COMORBIDITIES THEREOF” (AiCuris Anti-infective Cures GmbH, priority 2016, dated 2018).
